Measured values from US9359367B2, “Tetrahydroquinazolinone derivatives as PARP inhibitors” (Lupin Limited, priority 2012, dated 2016).

target: T1, PARP1 (Homo sapiens, UniProt P09874); experiment: PARP1 Biochemical Assay (BPS Bioscience kit, chemiluminescence); conditions: histone-coated plate, biotinilated NAD+, 25° C. for 60 min, luminescence, read-out: PARP 1 inhibition IC50
T1 construct: purchased BPS Bioscience
Summary of the method: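 Human PARP1 (25–75 ng/well) with activated DNA was incubated with compound on histone-coated wells. Biotinylated NAD+ was added and the reaction ran 60 min at 25 °C. Ribosylation was detected by streptavidin-HRP chemiluminescence, % inhibition was normalised to enzyme-free and uninhibited controls, and IC50 was fitted from % inhibition versus concentration.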

T1 sequence (P09874 whole entry): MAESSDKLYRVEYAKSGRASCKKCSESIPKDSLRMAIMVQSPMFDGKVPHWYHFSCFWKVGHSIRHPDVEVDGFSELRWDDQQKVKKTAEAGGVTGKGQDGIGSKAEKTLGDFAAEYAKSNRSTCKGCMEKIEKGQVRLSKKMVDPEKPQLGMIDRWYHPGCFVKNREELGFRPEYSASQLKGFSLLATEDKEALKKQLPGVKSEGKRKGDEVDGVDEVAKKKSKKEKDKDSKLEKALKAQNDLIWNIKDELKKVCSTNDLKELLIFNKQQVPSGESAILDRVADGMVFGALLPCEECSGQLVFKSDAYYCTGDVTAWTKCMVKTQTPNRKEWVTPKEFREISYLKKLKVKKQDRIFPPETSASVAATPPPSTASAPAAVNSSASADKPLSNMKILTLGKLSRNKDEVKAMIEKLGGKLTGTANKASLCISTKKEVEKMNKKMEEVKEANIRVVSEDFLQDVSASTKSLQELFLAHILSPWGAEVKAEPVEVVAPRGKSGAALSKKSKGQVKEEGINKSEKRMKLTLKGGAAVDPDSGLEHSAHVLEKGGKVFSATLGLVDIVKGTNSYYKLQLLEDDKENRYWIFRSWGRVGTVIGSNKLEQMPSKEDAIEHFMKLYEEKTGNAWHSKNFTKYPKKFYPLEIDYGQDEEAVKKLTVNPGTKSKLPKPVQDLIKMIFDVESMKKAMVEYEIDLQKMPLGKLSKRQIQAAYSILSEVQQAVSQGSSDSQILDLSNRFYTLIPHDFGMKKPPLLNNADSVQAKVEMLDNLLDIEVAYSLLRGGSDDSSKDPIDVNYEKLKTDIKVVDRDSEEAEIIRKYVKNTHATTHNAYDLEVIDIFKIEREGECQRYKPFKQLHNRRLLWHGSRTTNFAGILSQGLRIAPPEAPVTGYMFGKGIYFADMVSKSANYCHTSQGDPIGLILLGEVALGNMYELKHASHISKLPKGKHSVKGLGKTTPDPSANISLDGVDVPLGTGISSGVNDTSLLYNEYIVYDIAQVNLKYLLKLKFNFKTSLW

Row | IC50 | Compound
1 | 1 to 500 nM | Cc1ccc(N2CCN([C@H]3C=C(c4nc5c(c(=O)[nH]4)CC4(CC5)CC4)CC3)CC2)c(Cl)c1 [Compound 92, (R)-2′-(3-(4-(2-chloro-4-methylphenyl)piperazin-1-yl)cyclopent-1-en-1-yl)-7′,8′-dihydro-3′H-spiro[cyclopropane-1,6′-quinazolin]-4′(5′H)-one]
2 | 1 to 500 nM | O=c1[nH]c(CCCN2CC=C(c3ccc(F)cc3)CC2)nc2c1CC1(CC2)CC1 [Compound 9, 2′-(3-(4-(4-fluorophenyl)-5,6-dihydropyridin-1(2H)-yl)propyl)-7′,8′-dihydro-3′H-spiro[cyclopropane-1,6′-quinazolin]-4′(5′H)-one]
3 | 501 to 5000 nM | O=c1[nH]c(C2=C[C@H](N3CCN(c4cccc(Cl)c4F)CC3)CC2)nc2c1CC1(CC2)CC1 [Compound 99, (R)-2′-(3-(4-(3-chloro-2-fluorophenyl)piperazin-1-yl)cyclopent-1-en-1-yl)-7′,8′-dihydro-3′H-spiro[cyclopropane-1,6′-quinazolin]-4′(5′H)-one]
4 | 501 to 5000 nM | CNC(=O)c1cccnc1N1CCN([C@H]2C=C(c3nc4c(c(=O)[nH]3)CC3(CC4)CC3)CC2)CC1 [Compound 131, (R)—N-methyl-2-(4-(3-(4′-oxo-4′,5′,7′,8′-tetrahydro-3′H-spiro[cyclopropane-1,6′-quinazolin]-2′-yl)cyclopent-2-en-1-yl)piperazin-1-yl)nicotinamide]
5 | 501 to 5000 nM | Cc1csc(N2CCN([C@H]3C=C(c4nc5c(c(=O)[nH]4)CC4(CC5)CC4)CC3)CC2)n1 [Compound 102, (R)-2′-(3-(4-(4-methylthiazol-2-yl)piperazin-1-yl)cyclopent-1-en-1-yl)-7′,8′-dihydro-3′H-spiro[cyclopropane-1,6′-quinazolin]-4′(5′H)-one]
6 | 5000 to 500000 nM | O=c1[nH]c(CCCN2CCN(c3ccc(Cl)cc3)CC2)nc2c1C1CCC2C1 (centres unmarked) [Compound 36, 2-(3-(4-(4-chlorophenyl)piperazin-1-yl)propyl)-5,6,7,8-tetrahydro-5,8-methanoquinazolin-4(3H)-one]
7 | 1 to 500 nM | O=c1[nH]c(CCCN2CCN(c3ccccc3Cl)CC2)nc2c1CC1(CC2)CC1 [Compound 14, 2′-(3-(4-(2-chlorophenyl)piperazin-1-yl)propyl)-7′,8′-dihydro-3′H-spiro[cyclopropane-1,6′-quinazolin]-4′(5′H)-one]
8 | 5000 to 500000 nM | O=c1[nH]c(C2=C[C@@H](N3CCN(c4ccc(F)cc4)CC3)CC2)nc2c1CC1(CC2)CC1 [Compound 43, (S)-2′-(3-(4-(4-fluorophenyl)piperazin-1-yl)cyclopent-1-en-1-yl)-7′,8′-dihydro-3′H-spiro[cyclopropane-1,6′-quinazolin]-4′(5′H)-one]
9 | 501 to 5000 nM | Cc1ccc(N2CCN([C@H]3C=C(c4nc5c(c(=O)[nH]4)CC4(CC5)CC4)CC3)CC2)cc1C [Compound 136, (R)-2′-(3-(4-(3,4-dimethylphenyl)piperazin-1-yl)cyclopent-1-en-1-yl)-7′,8′-dihydro-3′H-spiro[cyclopropane-1,6′-quinazolin]-4′(5′H)-one]
10 | 1 to 500 nM | O=c1[nH]c(C2=C[C@H](N3CC=C(c4ccc(F)cc4)CC3)CC2)nc2c1CC1(CC2)CC1 [Compound 52, (R)-2′-(3-(4-(4-fluorophenyl)-5,6-dihydropyridin-1 (2H)-yl)cyclopent-1-en-1-yl)-7′,8′-dihydro-3′H-spiro[cyclopropane-1,6′-quinazolin]-4′(5′H)-one]
11 | 1 to 500 nM | O=c1[nH]c(C2=C[C@H](N3CC=C(c4ccc(Cl)cc4)CC3)CC2)nc2c1CC1(CC2)CC1 [Compound 46, (R)-2′-(3-(4-(4-chlorophenyl)-5,6-dihydropyridin-1(2H)-yl)cyclopent-1-en-1-yl)-7′,8′-dihydro-3′H-spiro[cyclopropane-1,6′-quinazolin]-4′(5′H)-one]
12 | 1 to 500 nM | Cc1ccccc1N1CCN([C@H]2C=C(c3nc4c(c(=O)[nH]3)CC3(CC4)CC3)CC2)CC1 [Compound 90, (R)-2′-(3-(4-(o-tolyl)piperazin-1-yl)cyclopent-1-en-1-yl)-7′,8′-dihydro-3′H-spiro[cyclopropane-1,6′-quinazolin]-4′(5′H)-one]
13 | 1 to 500 nM | O=c1[nH]c(CCCN2CCN(c3ccc(F)cc3)CC2)nc2c1CCCC21CC1 [Compound 1, 2′-(3-(4-(4-fluorophenyl)piperazin-1-yl)propyl)-6′,7′-dihydro-3′H-spiro[cyclopropane-1,8′-quinazolin]-4′(5′H)-one]
14 | 5000 to 500000 nM | O=c1[nH]c(C2=C[C@H](N3CCN(c4ccc(Cl)c(Cl)c4)CC3)CC2)nc2c1CC1(CC2)CC1 [Compound 59, (R)-2′-(3-(4-(3,4-dichlorophenyl)piperazin-1-yl)cyclopent-1-en-1-yl)-7′,8′-dihydro-3′H-spiro[cyclopropane-1,6′-quinazolin]-4′(5′H)-one]
15 | 1 to 500 nM | Cc1ccc(N2CCN([C@H]3C=C(c4nc5c(c(=O)[nH]4)CC4(CC5)CC4)CC3)CC2)nc1 [Compound 124, (R)-2′-(3-(4-(5-methylpyridin-2-yl)piperazin-1-yl)cyclopent-1-en-1-yl)-7′,8′-dihydro-3′H-spiro[cyclopropane-1,6′-quinazolin]-4′(5′H)-one]
16 | 1 to 500 nM | O=c1[nH]c(C2=C[C@H](N3CCN(c4ccsc4)CC3)CC2)nc2c1CC1(CC2)CC1 [Compound 91, (R)-2′-(3-(4-(thiophen-3-yl)piperazin-1-yl)cyclopent-1-en-1-yl)-7′,8′-dihydro-3′H-spiro[cyclopropane-1,6′-quinazolin]-4′(5′H)-one]
17 | 5000 to 500000 nM | O=c1[nH]c(C2=C[C@H](N3CCN(c4c(F)cccc4Cl)CC3)CC2)nc2c1CC1(CC2)CC1 [Compound 139, (R)-2′-(3-(4-(2-chloro-6-fluorophenyl)piperazin-1-yl)cyclopent-1-en-1-yl)-7′,8′-dihydro-3′H-spiro[cyclopropane-1,6′-quinazolin]-4′(5′H)-one]
18 | 501 to 5000 nM | O=c1[nH]c(CCCN2CCN(c3ccc(Cl)c(Cl)c3)CC2)nc2c1CC1(CC2)CC1 [Compound 10, 2′-(3-(4-(3,4-dichlorophenyl)piperazin-1-yl)propyl)-7′,8′-dihydro-3′H-spiro[cyclopropane-1,6′-quinazolin]-4′(5′H)-one]
19 | 1 to 500 nM | CNC(=O)c1ccc(N2CCN([C@H]3C=C(c4nc5c(c(=O)[nH]4)CC4(CC5)CC4)CC3)CC2)cc1C [Compound 98, (R)—N, 2-dimethyl-4-(4-(3-(4′-oxo-4′,5′,7′,8′-tetrahydro-3′H-spiro[cyclopropane-1,6′-quinazolin]-2′-yl)cyclopent-2-en-1-yl)piperazin-1-yl)benzamide]
20 | 1 to 500 nM | O=c1[nH]c([C@@H]2CC[C@H](N3CCN(c4ccc(F)cc4)CC3)C2)nc2c1CC1(CC2)CC1 [Compound 150, 2′-((1R,3S)-3-(4-(4-fluorophenyl)piperazin-1-yl)cyclopentyl)-7′,8′-dihydro-3′H-spiro[cyclopropane-1,6′-quinazolin]-4′(5′H)-one]
21 | 1 to 500 nM | O=c1[nH]c(CCCN2CCN(c3ccccc3F)CC2)nc2c1CC1(CC2)CC1 [Compound 28, 2′-(3-(4-(2-fluorophenyl)piperazin-1-yl)propyl)-7′,8′-dihydro-3′H-spiro[cyclopropane-1,6′-quinazolin]-4′(5′H)-one]
22 | 1 to 500 nM | Cc1ccc(N2CCN([C@H]3C=C(c4nc5c(c(=O)[nH]4)CC4(CC5)CC4)CC3)CC2)cc1Cl [Compound 82, (R)-2′-(3-(4-(3-chloro-4-methylphenyl)piperazin-1-yl)cyclopent-1-en-1-yl)-7′,8′-dihydro-3′H-spiro[cyclopropane-1,6′-quinazolin]-4′(5′H)-one]
23 | 5000 to 500000 nM | O=C1CN(c2ccc(F)cc2)CCN1CCCc1nc2c(c(=O)[nH]1)CC1(CC2)CC1 [Compound 33, 2′-(3-(4-(4-fluorophenyl)-2-oxopiperazin-1-yl)propyl)-7′,8′-dihydro-3′H-spiro[cyclopropane-1,6′-quinazolin]-4′(5′H)-one]
24 | 1 to 500 nM | CNC(=O)c1ccc(N2CCN([C@H]3C=C(c4nc5c(c(=O)[nH]4)CC4(CC5)CC4)CC3)CC2)c(Cl)c1 [Compound 134, (R)-3-chloro-N-methyl-4-(4-(3-(4′-oxo-4′,5′,7′,8′-tetrahydro-3′H-spiro[cyclopropane-1,6′-quinazolin]-2′-yl)cyclopent-2-en-1-yl)piperazin-1-yl)benzamide]
25 | 1 to 500 nM | O=c1[nH]c([C@H]2CC[C@H](N3CCN(c4ccc(Cl)cc4)CC3)C2)nc2c1CC1(CC2)CC1 [Compound 119, 2′-((1S,3S)-3-(4-(4-chlorophenyl)piperazin-1-yl)cyclopentyl)-7′,8′-dihydro-3′H-spiro[cyclopropane-1,6′-quinazolin]-4′(5′H)-one]
26 | 1 to 500 nM | CNC(=O)c1ccc(N2CCN([C@H]3C=C(c4nc5c(c(=O)[nH]4)CC4(CC5)CC4)CC3)CC2)nc1 [Compound 76, (R)—N-methyl-6-(4-(3-(4′-oxo-4′,5′,7′,8′-tetrahydro-3′H-spiro[cyclopropane-1,6′-quinazolin]-2′-yl)cyclopent-2-en-1-yl)piperazin-1-yl)nicotinamide]
27 | 1 to 500 nM | O=c1[nH]c(C2=C[C@H](N3CCN(c4ccccc4F)CC3)CC2)nc2c1CC1(CC2)CC1 [Compound 116, (R)-2′-(3-(4-(2-fluorophenyl)piperazin-1-yl)cyclopent-1-en-1-yl)-7′,8′-dihydro-3′H-spiro[cyclopropane-1,6′-quinazolin]-4′(5′H)-one]
28 | 1 to 500 nM | CNC(=O)c1ccc(N2CCN([C@H]3C=C(c4nc5c(c(=O)[nH]4)CC4(CC5)CC4)CC3)CC2)c(F)c1 [Compound 68, (R)-3-fluoro-N-methyl-4-(4-(3-(4′-oxo-4′,5′,7′,8′-tetrahydro-3′H-spiro[cyclopropane-1,6′-quinazolin]-2′-yl)cyclopent-2-en-1-yl)piperazin-1-yl)benzamide]
29 | 1 to 500 nM | O=c1[nH]c(C2=CC(N3CCN(c4ccncc4)CC3)CC2)nc2c1CC1(CC2)CC1 (centres unmarked) [Compound 39, 2′-(3-(4-(pyridin-4-yl)piperazin-1-yl)cyclopent-1-en-1-yl)-7′,8′-dihydro-3′H-spiro[cyclopropane-1,6′-quinazolin]-4′(5′H)-one]
